According to paper PMC4364556, “Comparative Distribution and In Vitro Activities of the Urotensin II-Related Peptides URP1 and URP2 in Zebrafish: Evidence for Their Colocalization in Spinal Cerebrospinal Fluid-Contacting Neurons” (PLoS ONE, 2015):
Where a SMILES comes first, the peptide text is derived from it. Bridges are numbered along the chain shown (N, C = ends).

Target: T1, human UII receptor (hUT) (Homo sapiens, UniProt Q9UKP6)
T1 construct: expressed in transfected cells
T1 sequence (Q9UKP6 1-389): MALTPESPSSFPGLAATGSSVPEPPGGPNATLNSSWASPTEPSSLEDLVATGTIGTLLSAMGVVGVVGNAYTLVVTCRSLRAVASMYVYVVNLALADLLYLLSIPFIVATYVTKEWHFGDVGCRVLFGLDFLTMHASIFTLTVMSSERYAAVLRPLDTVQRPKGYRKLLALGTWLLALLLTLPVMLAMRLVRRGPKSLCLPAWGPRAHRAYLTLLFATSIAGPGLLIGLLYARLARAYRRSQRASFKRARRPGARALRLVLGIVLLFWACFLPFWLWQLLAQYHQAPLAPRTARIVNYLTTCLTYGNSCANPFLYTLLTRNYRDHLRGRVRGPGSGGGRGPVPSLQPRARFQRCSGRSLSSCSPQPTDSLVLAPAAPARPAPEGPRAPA
Experiment: Intracellular calcium mobilization assay (hUT-CHO cells)
Assay type: cell-based
Settings: for EC50: agonist, CHO cells stably transfected with human UT, Fluo-4 AM, 37°C, fluorescence 485/525 nm, 180 sec, peptides 10^-12 to 10^-6 M, peak fluorescence, four-parameter logistic, mean ± SEM of 7–13 independent experiments, read-out: pEC50, intracellular calcium mobilization (converted); for comparison of potency of URP1 and URP2 to activate the hUT: URP1 vs URP2; for times less potent than hUII to mobilize intracellular calcium: compared with hUII pEC50 = […]; for efficacy, increase in intracellular calcium: percentages of the baseline (baseline normalized to 100%), Fluo-4 AM peak fluorescence, similar to efficacies evoked by hUII and mURP, approximate ('around')
Experimental: CHO cells stably transfected with the human UII receptor (hUT-CHO) (Chatenet et al. 2004) were plated at a density of 4 x 10^4 cells/well in flat clear bottom black 96-well plates. Measures of intracellular calcium mobilization were performed as previously described (Dubessy et al. 2008) with slight modifications. Briefly, after 24 h in culture, cells were incubated for 1 h in a humidified incubator (37°C, 5% CO2) with 2 μM Fluo-4 acetoxymethyl ester (AM) calcium dye (Life Technologies) in Hank’s Buffer Saline Solution (HBSS; Life Technologies) buffered with 5 mM HEPES and supplemented with 2.5 mM probenecid (Sigma-Aldrich, Saint-Quentin Fallavier, France). Cells were washed twice with HBSS/HEPES/probenecid to remove Fluo-4 AM from the incubation medium and incubated in 150 μl of the same medium at 37°C for 15 min. Fluorescence was recorded using a Flexstation 3 fluorescence plate reader system (Molecular Devices, Saint-Grégoire, France) during 180 sec with an excitation wavelength of 485 nm, an emission wavelength of 525 nm and a cutoff filter of 515 nm. After 18 sec recording in basal conditions, 50 μl of graded concentration (10^-12 to 10^-6 M) of different peptides (4-fold final concentration) was added to the incubation medium with the built-in 8 channel pipettor at a rate of 47 μl/sec to assess their agonistic activity. After subtraction of mean fluorescence background from control wells without Fluo-4 AM, baseline was normalized to 100% and fluorescence peak values were determined for each concentration of peptide. Potency (EC50) and efficacy (Emax) were calculated with the Prism 5.0 software (GraphPad Software In., La Jolla, CA, USA) using a four-parameter logistic equation to fit peak fluorescence data.
For intracellular calcium mobilization assays, results from 7–13 independent experiments were expressed as mean ± SEM of Log(EC50) and plotted with box and whiskers. The normality of each data set was verified with the Shapiro-Wilk’s test and a one-way ANOVA test followed by a Tukey’s multiple comparison test to compare Log(EC50) between each peptide. Differences were considered significant where P<0.05.

[1] = hUT-CHO cells, one-way ANOVA followed by Tukey's test on Log(EC50)

| EC50 [nM] | potency compared with the other tested peptides (hUT-CHO cells, vs hUII, URP1 and URP2, one-way ANOVA followed by Tukey's test on Log(EC50), P<0.05) | comparison of potency of URP1 and URP2 to activate the hUT [1] | times less potent than hUII to mobilize intracellular calcium (hUT-CHO cells) [times] | efficacy, increase in intracellular calcium (hUT-CHO cells) | SMILES |
| --- | --- | --- | --- | --- | --- |
| 2.45 | intermediate potency |  |  |  | CC(C)[C@H](NC(=O)[C@@H]1CSSC[C@H](NC(=O)[C@H](C)N)C(=O)N[C@@H](Cc2ccccc2)C(=O)N[C@@H](Cc2c[nH]c3ccccc23)C(=O)N[C@@H](CCCCN)C(=O)N[C@@H](Cc2ccc(O)cc2)C(=O)N1)C(=O)O [mURP, reference compound] |
| 10.2 |  | equipotent to activate the hUT | 28 | 200–250% | CC(C)[C@H](NC(=O)[C@@H]1CSSC[C@H](NC(=O)[C@H](C)N)C(=O)N[C@@H](Cc2ccccc2)C(=O)N[C@@H](Cc2c[nH]c3ccccc23)C(=O)N[C@@H](CCCCN)C(=O)N[C@@H](Cc2ccc(O)cc2)C(=O)N1)C(=O)N[C@H](C(=O)N[C@@H](CC(N)=O)C(=O)O)[C@@H](C)O [URP1] (H-ACFWKYCVTN-OH; disulfide 2-7) |
| 30.2 |  | equipotent to activate the hUT | 83 | 200–250% | CC(C)[C@H](N)C(=O)N[C@H]1CSSC[C@@H](C(=O)N[C@@H](CO)C(=O)N[C@@H](CCC(N)=O)C(=O)N[C@@H](CC(N)=O)C(=O)O)NC(=O)[C@H](Cc2ccc(O)cc2)NC(=O)[C@H](CCCCN)NC(=O)[C@H](Cc2c[nH]c3ccccc23)NC(=O)[C@H](Cc2ccccc2)NC1=O [URP2] (H-VCFWKYCSQN-OH; disulfide 2-7) |
